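A five-concentration, 48-hour dose response in 96-well plates underlies each endpoint, interpolated linearly between surrounding concentrations. Here, GI50 denotes the concentration required for 50% inhibition of growth.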 Active and inactive are the calls of the source. No stated cut-off is given here; in the data, active = GI50 up to about 1.1 µM and inactive = higher.
How the values were obtained:
Test in all cases: NCI-60 cell line screen, 48 h
DMS-114 = system: DMS-114
786-0 = system: 786-0
SK-MEL-2 = system: SK-MEL-2
RPMI-8226 = system: RPMI-8226
HT-29 = system: HT-29
UACC-257 = system: UACC-257
HOP-18 = system: HOP-18
SNB-75 = system: SNB-75
HCT-116 = system: HCT-116
ACHN = system: ACHN
UO-31 = system: UO-31
OVCAR-3 = system: OVCAR-3
SNB-78 = system: SNB-78
U-251 = system: U-251
RXF 631 = system: RXF 631
NCI-H522 = system: NCI-H522
EKVX = system: EKVX
NCI-H23 = system: NCI-H23
HOP-92 = system: HOP-92
KM12 = system: KM12
SF-268 = system: SF-268
NCI-H226 = system: NCI-H226
OVCAR-8 = system: OVCAR-8
OVCAR-4 = system: OVCAR-4
Malme-3M = system: Malme-3M
OVCAR-5 = system: OVCAR-5
SK-MEL-5 = system: SK-MEL-5
A549 = system: A549
MOLT-4 = system: MOLT-4
HL-60 = system: HL-60
SW-620 = system: SW-620
HCT-15 = system: HCT-15
SF-539 = system: SF-539
A498 = system: A498
LXFL 529 = system: LXFL 529
CAKI-1 = system: CAKI-1
KM-20L2 = system: KM-20L2
K562 = system: K562
SF-295 = system: SF-295
CCRF-CEM = system: CCRF-CEM
DLD-1 = system: DLD-1
HOP-62 = system: HOP-62
COLO 205 = system: COLO 205
SN12C = system: SN12C
HCC 2998 = system: HCC 2998
M19-MEL = system: M19-MEL
SK-MEL-28 = system: SK-MEL-28
SNB-19 = system: SNB-19
SR = system: SR
RXF 393 = system: RXF 393
SK-OV-3 = system: SK-OV-3
NCI-H460 = system: NCI-H460
UACC-62 = system: UACC-62
M14 = system: M14
IGROV-1 = system: IGROV-1
DMS-273 = system: DMS-273

How did the GI50 (DMS-114) turn out when `Cc1ccccc1-n1c(=S)[nH]c2c(sc(=O)n2-c2ccccc2C)c1=O` was run?
The GI50 was > 100 µM (inactive).

And the GI50 (786-0)?
Its GI50 is > 100 µM (inactive).

And the GI50 (SK-MEL-2)?
Its GI50 is > 100 µM (inactive).

And the GI50 (RPMI-8226)?
Its GI50 is > 100 µM (inactive).

What about the GI50 (HT-29) of the same molecule?
Its GI50 is > 100 µM (inactive).

What about the GI50 (UACC-257) of the same molecule?
Its GI50 is > 100 µM (inactive).

What about the GI50 (HOP-18) of the same molecule?
The GI50 was > 100 µM (inactive).

What about the GI50 (SNB-75) of the same molecule?
Its GI50 is > 100 µM (inactive).

What about the GI50 (HCT-116) of the same molecule?
Its GI50 is > 100 µM (inactive).

And the GI50 (ACHN)?
The GI50 was > 100 µM (inactive).

What about the GI50 (UO-31) of the same molecule?
The GI50 was > 100 µM (inactive).

What about the GI50 (OVCAR-3) of the same molecule?
Its GI50 is > 100 µM (inactive).

What about the GI50 (SNB-78) of the same molecule?
Its GI50 is > 100 µM (inactive).

And the GI50 (U-251)?
The GI50 was > 100 µM (inactive).

What about the GI50 (RXF 631) of the same molecule?
Its GI50 is > 100 µM (inactive).

What about the GI50 (NCI-H522) of the same molecule?
The GI50 was > 100 µM (inactive).

What about the GI50 (EKVX) of the same molecule?
Its GI50 is > 100 µM (inactive).

And the GI50 (NCI-H23)?
The GI50 was > 100 µM (inactive).

What about the GI50 (HOP-92) of the same molecule?
Its GI50 is > 100 µM (inactive).

And the GI50 (KM12)?
Its GI50 is > 100 µM (inactive).

What about the GI50 (SF-268) of the same molecule?
Its GI50 is > 100 µM (inactive).

What about the GI50 (NCI-H226) of the same molecule?
Its GI50 is > 100 µM (inactive).

What about the GI50 (OVCAR-8) of the same molecule?
The GI50 was > 100 µM (inactive).

And the GI50 (OVCAR-4)?
The GI50 was > 100 µM (inactive).

What about the GI50 (Malme-3M) of the same molecule?
The GI50 was > 100 µM (inactive).

What about the GI50 (OVCAR-5) of the same molecule?
Its GI50 is > 100 µM (inactive).

What about the GI50 (SK-MEL-5) of the same molecule?
Its GI50 is > 100 µM (inactive).

What about the GI50 (A549) of the same molecule?
Its GI50 is > 100 µM (inactive).

And the GI50 (MOLT-4)?
Its GI50 is > 100 µM (inactive).

And the GI50 (HL-60)?
The GI50 was > 100 µM (inactive).

What about the GI50 (SW-620) of the same molecule?
The GI50 was > 100 µM (inactive).

And the GI50 (HCT-15)?
The GI50 was > 100 µM.

And the GI50 (SF-539)?
Its GI50 is > 100 µM (inactive).

What about the GI50 (A498) of the same molecule?
The GI50 was > 100 µM (inactive).

And the GI50 (LXFL 529)?
Its GI50 is > 100 µM (inactive).

And the GI50 (CAKI-1)?
Its GI50 is > 100 µM (inactive).

And the GI50 (KM-20L2)?
The GI50 was > 100 µM (inactive).

What about the GI50 (K562) of the same molecule?
The GI50 was > 100 µM (inactive).

What about the GI50 (SF-295) of the same molecule?
Its GI50 is > 100 µM (inactive).

And the GI50 (CCRF-CEM)?
The GI50 was > 100 µM (inactive).

What about the GI50 (DLD-1) of the same molecule?
The GI50 was > 100 µM (inactive).

What about the GI50 (HOP-62) of the same molecule?
The GI50 was > 100 µM (inactive).

What about the GI50 (COLO 205) of the same molecule?
Its GI50 is > 100 µM (inactive).

And the GI50 (SN12C)?
The GI50 was > 100 µM (inactive).

And the GI50 (HCC 2998)?
The GI50 was > 100 µM (inactive).

What about the GI50 (M19-MEL) of the same molecule?
Its GI50 is > 100 µM (inactive).

What about the GI50 (SK-MEL-28) of the same molecule?
The GI50 was > 100 µM (inactive).

What about the GI50 (SNB-19) of the same molecule?
The GI50 was > 100 µM (inactive).

And the GI50 (SR)?
The GI50 was > 100 µM (inactive).

And the GI50 (RXF 393)?
Its GI50 is > 100 µM (inactive).

And the GI50 (SK-OV-3)?
Its GI50 is > 100 µM (inactive).

And the GI50 (NCI-H460)?
The GI50 was > 100 µM (inactive).

What about the GI50 (UACC-62) of the same molecule?
Its GI50 is > 100 µM (inactive).

And the GI50 (M14)?
The GI50 was > 100 µM (inactive).

And the GI50 (IGROV-1)?
Its GI50 is > 100 µM (inactive).

What about the GI50 (DMS-273) of the same molecule?
The GI50 was > 100 µM (inactive).

Source: ChEMBL document CHEMBL1201862, “PubChem BioAssay data set” (2004)
